Holding throughout (type): in vivo
Experiment [1] has as its system HIV. To be noted: for Test Data BCO Odds Ratio / Validation Data BCO Odds Ratio: biological cutoffs; for Test Data CCO Odds Ratio / Validation Data CCO Odds Ratio: clinical cutoffs. The text has this: Further factors which may be taken into account when validating the model are the odds ratios determined using clinical cutoffs compared to those determined using biological cutoffs. These ratios represent the odds of being a responder in the group that is labeled resistant by the cutoffs divided by the odds of being a responder in the group that is labeled sensitive by the cutoffs. In this way it is possible to evaluate how well the cutoffs perform on a drug by drug basis. The further away that the odds ratio is from 1, the stronger the correlation between the resistance class and clinical outcome. The odds ratio as specified above yield numbers smaller than 1 as the odds of being a responder should be smaller in the higher resistance class. Put another way, the probability of response will decrease as the resistance increases. Additionally, if the odds ratio for the CCO is smaller than the odds ratio for the BCO, it can be concluded that the CCO is stronger correlated with clinical outcome and therefore gives a better prediction than the BCO.
A logistic regression model may be used to determine the odds ratio. The model used is the same as the logistic regression model described above except that the fold change in the model is replaced by the resistance class. The coefficient for the resistance class that is obtained from the model is the log (odds ratio). The advantage of using this model is that the odds ratio estimates can be adjusted for the baseline viral load and the cPSS score of the background regimen.
The columns headed CCO Odds Ratio and BCO Odds Ratio represent the odds of being a responder in the group that is labeled resistance by the cutoffs divided by the odds of being a responder in the group that is labeled sensitive by the cutoffs. For example, if there are four non-responders and one responder in the resistant group, and four responders and two non-responders in the sensitive group, the odds of being a responder in the resistant group is 1:4=0.25 and the odds of being a responder in the sensitive group is 4:2=2. […] The further away that the odds ratio is from 1, the stronger the correlation between the resistance class and clinical outcome.
The separation in groups (resistance/sensitive) can be done based on clinical cutoffs or biological cutoffs. This means that odds ratios based on clinical cutoffs (CCO) and odds ratios based on biological cutoffs (BCO) can be compared. If the odds ratio for the CCO is smaller than the odds ratio for the BCO, it can be concluded that the CCO gives a better prediction than the BCO.
In practice, a logistic regression model is used to determine the odds ratio. The model used is similar to logistic regression model described earlier except that the fold change in the model is replaced by the resistance class. The coefficient for the resistance class that is obtained from the model is the log (odds ratio). The advantage of using this model is that the odds ratio estimates can be adjusted for the baseline viral load and the cPSS score of the background regimen. […] In this case, a larger odds ratio indicates a stronger correlation with clinical outcome.

In experiment [2] the test system is HIV. The experiment in a line: Logistic regression model of probability of success/failure as a function of baseline fold change resistance (clinical cut-offs). To be noted: Definition 2; for lower cutoff, logistic regression / upper cutoff, logistic regression: log baseline VL/background PSS of 5/0. The text has this:
In such a method, Prob of success is preferably calculated by performing a logistic regression analysis using data from a clinical response dataset, wherein Prob of success is modelled according to the following equation: […]
The clinical outcome results (drop in viral load and response rate) were modelled as a function of baseline fold change (FC) as determined by virtual phenotype (see WO01/79540 and WO02/33402; also http://www.vircolab.com). The models applied were linear regression, logistic regression, and a classification tree. These models also took into account effects of the concomitant HIV drugs (PSS), baseline viral load (Baseline Log(V1)i) and, optionally, treatment history in order to avoid bias introduced by imbalances of important characteristics. From the models, a prediction of clinical outcome could be made at different levels of the baseline fold change resistance.
In the logistic regression, the proposed equation was the following: […]
However, by binning the viral load into successes and failures, part of the information of the continuous variable viral load is lost. Estimates are also corrected for covariates as for linear regression.
(§1) The maximum effect was defined as the treatment effect at fold change 1, and the minimum effect was defined as the treatment effect at a very high fold change (i.e. when the curve reached a plateau). The effect range was then the difference between the maximum effect and the minimum effect.
The lower and higher cutoffs are defined as the fold change associated with an expected 20% and 80% decrease respectively of the reference activity of the drug within the regimen.

Experiment [3] relates to HIV. Details: key to Modelled Lower Cutoff & Confidence Interval / Modelled Upper Cutoff & Confidence Interval: fold change (FC) matching VL drop at 20% and 80% loss of activity. To be noted: preferred embodiment of linear regression. The text has this:
In a preferred embodiment of the linear regression model, more factors are included in order to obtain a more refined prediction of viral load response. These factors include for example a sensitivity score per drug class in addition to the overall sensitivity score of the background treatment (cPSS), previous exposure to the drug (naïve (Yes/No), naïve to PIs, naïve to NRTI's, etc. . . . ). Furthermore, in the preferred embodiment, the fold change is transformed before inserting the figures into the model. The transformation to the fold change comprises a power-transformation ranging from FC^−3 to FC^1. In addition, a quadratic term in cPSS is preferably added.
The NRTI[naïve] value represents whether the patient is naïve to nucleoside RT inhibitors. If yes, value=1, if no, value=0. The PSS[NRTI} represents the phenotypic sensitivity score for NRTIs, i.e the number of active NRTIs in the background regimen for the patient.
Stage 3: Determine Fold change equivalent to VL drop at 20% and 80% loss of activity by inserting values for VL drop into the above equation and calculating FC. […]

The subject of experiment [4] is HIV. Details: Linear Regression Higher CO / Linear Regression Lower CO: unit not given here. To be noted: for Linear Regression Higher CO / Linear Regression Lower CO: Definition 2, Overall (whole population); for VIROLOGIC RESPONSE Baseline FC for 80% REDUCTION of response (upper cutoff) / VIROLOGIC RESPONSE 20% REDUCTION (fold change, preliminary VirtualPhenotype Clinical Cutoff) / VIROLOGIC RESPONSE 80% REDUCTION (fold change, preliminary VirtualPhenotype Clinical Cutoff): preliminary linear regression analysis; for VIROLOGIC RESPONSE Baseline FC for 80% REDUCTION of response (upper cutoff): definition 2; for VIROLOGIC RESPONSE 20% REDUCTION (fold change, preliminary VirtualPhenotype Clinical Cutoff) / VIROLOGIC RESPONSE 80% REDUCTION (fold change, preliminary VirtualPhenotype Clinical Cutoff): virologic response at 8 weeks.
Description: Databases of studies for patients with tenofovir containing regimens and consisting of patient baseline demographic characteristics, clinical outcome results with viral load and resistance data (Fold change), were retrieved and remapped according to a common structure allowing a meta-analysis. The structure consisted of baseline sequence, viral load data set, viral load measurements and sampling dates (for example viral load within 3 months of starting new regimen and viral load assessment 8 and/or 24 weeks after beginning new regimen), CD4+ data set which contains CD4+ counts and sampling dates, resistance data set containing the fold changes to different antivirals and sampling dates; patient data set with patient information such as age, gender, race, treatment history; treatment data set with drug regimens, start and stop dates, doses, formulations, frequency of intake, regimen changes after resistance tests. The structure of such a clinical data base can be seen in FIG. 1a.
The viral load response data includes censored (<400 copies/ml) values. Parameters of the underlying uncensored distribution were estimated by maximum likelihood estimation in SAS (proc lifereg). The viral load response data are corrected for baseline viral load and cPSS.
The models applied were linear regression, logistic regression, and a classification tree. These models also took into account effects of the concomitant HIV drugs (PSS), baseline viral load (Baseline Log(V1)i) and, optionally, treatment history in order to avoid bias introduced by imbalances of important characteristics. From the models, a prediction of clinical outcome could be made at different levels of the baseline fold change resistance.
In the linear regression model, the proposed equation was the following: LogVL dropi=β0+β1*Baseline Log(V1)i+β2*PSSi+β3*(1/FC)i+ξi where i represented the patient, β0 the intercept, β1, β2 and β3 coefficients indicated the increase in log viral load drop per unit increase of respectively the baseline log VL, the number of sensitive drugs in the background regimen and the inverse of the baseline fold change. ξi was a random error term indicating the deviation of the patient from the value predicted by the model. Interactions between all the factors were evaluated and other baseline characteristics, i.e treatment history, were added if relevant.
When viral load results under the detection limits are obtained, biases could be introduced if the detection limit values are considered when calculating viral load drops and using those in the linear regression model. To avoid this, censoring needed to be taken into account and therefore the PROC LIFEREG facility in the SAS package was employed.
Clinical responses were predicted in the models developed in previous step 2. […] In order to determine the fold changes at which clinically relevant diminished clinical responses can be observed, three definitions of clinical cut-offs were considered:
as §1

The mark [5] stands for this setting: Subgroup 1: PSS = 2, baseline Log (VL) = 4.
Where [6] appears, read: Subgroup 3: PSS = 2, baseline Log (VL) = 5.

In the case of Lopinavir/r [LPV/r], in the experiment on HIV [1], the “Test Data BCO Odds Ratio” value amounted to 0.240, the “Test Data CCO Odds Ratio” value was 0.074, the “Validation Data BCO Odds Ratio” value came to 0.277 and the “Validation Data CCO Odds Ratio” value is recorded as 0.002. Besides, in the experiment with HIV [2] (setting [5]), the “Logistic Regression Higher CO” value turned out to be 64 and the “Logistic Regression Lower CO” value is 11. Besides, in the experiment on HIV [2] (setting [6]), the “Logistic Regression Higher CO” value came to 58 and the “Logistic Regression Lower CO” value was 9. In the experiment with HIV [2], the “lower cutoff, logistic regression” value is reported as 10 and the “upper cutoff, logistic regression” value came out at 60. Further, in the experiment on HIV [3], the “Modelled Lower Cutoff & Confidence Interval” value was 10.3 and the “Modelled Upper Cutoff & Confidence Interval” value is on record as 61.6. In the experiment on HIV [4], the “Linear Regression Higher CO” value was found to be 69; the “Linear Regression Lower CO” value stood at 8; the “VIROLOGIC RESPONSE Baseline FC for 80% REDUCTION of response (upper cutoff)” value was 56; the “VIROLOGIC RESPONSE 20% REDUCTION (fold change, preliminary VirtualPhenotype Clinical Cutoff)” value is 6.9. The “VIROLOGIC RESPONSE 80% REDUCTION (fold change, preliminary VirtualPhenotype Clinical Cutoff)” value in the experiment on HIV [4] is listed as 56.
For Saquinavir/r [SQV/r], in the experiment with HIV [1], the “Test Data BCO Odds Ratio” value is given as 0.249, the “Test Data CCO Odds Ratio” value was 0.165, the “Validation Data BCO Odds Ratio” value is on record as 0.080 and the “Validation Data CCO Odds Ratio” value is on record as 0.054. Besides, in the experiment on HIV [2] (setting [5]), the “Logistic Regression Higher CO” value came out at 13.2 and the “Logistic Regression Lower CO” value is listed as 1.7. Further, in the experiment with HIV [2], the “lower cutoff, logistic regression” value was found to be 1.7 and the “upper cutoff, logistic regression” value is listed as 12.9. Also, in the experiment on HIV [3], the “Modelled Lower Cutoff & Confidence Interval” value is 1.1 and the “Modelled Upper Cutoff & Confidence Interval” value came out at 12.0. For the same substance, in the experiment on HIV [4], the “Linear Regression Higher CO” value was determined as 12.3; the “Linear Regression Lower CO” value was 1.6; the “VIROLOGIC RESPONSE Baseline FC for 80% REDUCTION of response (upper cutoff)” value amounted to 12; the “VIROLOGIC RESPONSE 20% REDUCTION (fold change, preliminary VirtualPhenotype Clinical Cutoff)” value turned out to be 1.6. Moreover, the “VIROLOGIC RESPONSE 80% REDUCTION (fold change, preliminary VirtualPhenotype Clinical Cutoff)” value in the experiment with HIV [4] came to 12.
